Laboratory results published in patent US20090297624A1, “ARSENIC THERAPY FOR AUTOIMMUNE AND/OR INFLAMMATORY DISEASES IN MICE AND HUMANS” (CENTRE NATIONALE DE LA RECHERCHE SCIENTIFIQUE (CNRS), priority 2002, published 2009).
Several values for one entry are separate records, joined by “and”; a condition that tells them apart may be missing. Equal entries are not always repeated.

Columns and labels:
MRL/lpr mouse [1] = test: Preventive arsenic treatment of MRL/lpr mice; type: in vivo
Experimental: This study is aimed at preventing the appearance of the pathologies.
(§1) The aim of this group of animals, which was begun at T0, is to evaluate the preventive effect of an arsenic treatment on the development of the lymphoproliferation and of the autoimmune pathologies. To do this, 4 groups of animals 1.5 months old were formed. Two of these groups consist of MRL/lpr mice and the other two groups consist of MRL+/+ mice. One MRL/lpr group and one MRL+/+ group were treated with 5 μg of arsenic per gram of mouse, and the other two control groups were treated with the dilution buffer for the arsenic. At T0+1 month, animals from each group were sacrificed. The organs analyzed were the thymus, the spleen, the lymph nodes, the skin, the liver, the kidney and the heart. […] The arsenic therefore has a preventive effect on the development of the lymphoproliferation. The phenotype of the lymphoid populations present in this spleen and this node was determined by flow cytometry. As for the results for group 1, the arsenic makes it possible to eliminate the population of double-negative T cells which accumulate as the MRL/lpr mouse ages. In addition, the organs of these treated mice have a normal weight; there is therefore neither the lympho-proliferation nor the hepatomegaly that are observed in the control mice. The liver, the spleen, a lymph node, an eye, etc., were removed in order to be analyzed by anatomopathology.
It is desirable to determine very precisely the preventive and curative effect of various doses of arsenic on the evolution of the pathologies developed by the MRL/lpr mice. Five groups of animals (MRL/lpr and MRL+/+) were treated with the following concentrations: 2.5, 5, 7.5, 10 and 15 μg/g of mouse.

MRL/lpr mouse [2] = test: Curative arsenic (As2O3) treatment of MRL/lpr autoimmune mice; type: in vivo
Description: The inventors have studied mice referred to as MRL mice homozygous for the lpr mutation (MRL/lpr). Lymphoproliferation (lpr) results in an accumulation of activated T lymphocytes, of phenotype CD4^+CD8^− or CD4^−CD8^+ which have escaped the process of negative regulation via the apoptotic pathway. Thus, in MRL/lpr mice, hypertrophy of lymph nodes occurs, the mass of which is 100 times greater than that of the lymph nodes of MRL+/+mice, which are congenic for the lpr gene, and a spleen whose size is multiplied by 7 and a thymus whose weight, at the 22nd week, is double that of the MRL+/+ mice are observed. These activated T lymphocytes which accumulate will gradually repress the expression of their CD4 or CD8 receptors and become double-negative T lymphocytes having the phenotype: TCRαβCD4^−CD8^−B220^+, which will be responsible for the lymphoproliferation.
The MRL/lpr mouse is in particular a spontaneous model of autoimmune diseases such as disseminated lupus erythematosus with the presence of erythematous lesions of the skin and of rheumatoid arthritis. […] These mice produce, as they age, a large quantity of autoantibodies which are responsible for a lethal glomerulonephritis due to immunocomplex deposits in the glomeruli of the kidney. Thus, the lifespan of the MRL/lpr mouse is considerably shortened compared with that of the MRL+/+ mouse: ˜4-5 months in the MRL/lpr mouse compared with ˜2 years in the MRL+/+ mouse.
(§2) Initially, the inventors determined the optimum dose of arsenic (As2O3) to be injected into the MRL/lpr mice. Two concentrations were chosen: 1 and 5 μg of As2O3/g of mouse. At date T0, these injections were given daily. […] Knowing that the MRL/lpr autoimmune mice die, on average, after 4 to 5 months, compared with the normal MRL+/+ mice which die after ˜2 years, the inventors decided to conserve, for the subsequent treatments, only the dose of 5 μg/g of mice.
From the end of the first week of treatment, the inventors formed 5 groups of animals: • b 1st group, aimed at the curative treatment of an already present pathology, • 2nd group, aimed at preventing the appearance of pathologies, • 3rd group, aimed at determining the lifespan of the treated animals, • 4th group, aimed at determining the dose effect, • 5th group, aimed at evaluating the effect of stopping the treatment.
(§3) Each of the five groups has its controls consisting in injecting the dilution buffer for the arsenic. In addition, the animals present in the control and treated groups are derived from the same litter, which makes it possible to obtain reliable comparisons. At T0+5 months, more than 60 mice (MRL/lpr and MRL+/+) are undergoing treatment.
This study is aimed at the curative treatment of an already present pathology.
(§4) In parallel with these studies on the skin, other organs that are targets for autoimmune pathologies, such as the kidney, the lung, the liver, the eye, etc., were removed and analyzed by anatomopathology. In addition, these various organs, along with the spleen, the lymph nodes and the thymus, were weighed.
After 1 month and 20 days of treatment, a group of 3 control MRL/lpr mice and a group of 3 treated MRL/lpr mice were sacrificed in order to evaluate the effectiveness of the treatment on the lympho-proliferation. The organs analyzed were the thymus, the spleen and the lymph nodes. […] The phenotype of the lymphoid populations present in this spleen and this node was determined by flow cytometry. […] In addition, this cell population of abnormal phenotype is replaced with T lymphocytes of normal phenotype CD4^+CD8^− and CD4^−CD8^+ (FIG. 5). However, the level of reduction of the number of these double-negative T cells depends on the duration of the treatment. […]

MRL/lpr→MRL+/+ chimeras = test: As2O3 treatment of MRL/lpr→MRL+/+ chimeras (GVH reaction); type: in vivo, mouse
Experimental: In addition, lethally irradiated MRL+/+ mice had their bone marrow reconstituted with bone marrow from MRL/lpr mice (MRL/lpr→MRL+/+ chimeras) or with bone marrow from MRL+/+ mice (MRL+/+→MRL+/+ chimeras) as a control. After reconstitution, the chimeras are treated with arsenic or are not treated. While 100% of the untreated MRL/lpr→MRL+/+ chimeras died of a graft-versus-host (GvH) reaction two weeks after the transplant, the chimeras treated with arsenic were alive. The arsenic is therefore effective against GvH and makes it possible to spectacularly increase the survival of the animals.
(§5) Hematopoietic chimeras. Spleen and bone marrow cells from MRL/lpr were injected i.v. into MRL+/+ lethally irradiated (1000 cGy) in a ^137Cesium irradiator (MRL/Lpr→MRL+/+ chimeras). The control group consisted of irradiated MRL+/+ grafted with MRL+/+ cells (MRL+/+→MRL+/+ chimeras). All mice used in this graft protocol were sex matched.
(§6) MRL/Lpr→MRL+/+ and MRL+/+→MRL+/+ chimeras were injected i.p. daily with 2.5, 5, 7.5, 10 or 15 μg/g body weight of As2O3; controls received a daily i.p. injection of PBS (volume weight-determined). Treatments were initiated one week post-grafting.
Blood samples were collected at different times after grafting and glutamic-oxaloacetic transaminase (GOT) and glutamic-pyruvic transaminase (GPT) levels were measured (IU/l).
(§7) Serum levels of IFN-α, IFN-γ, soluble FasL, IL-18, TNF-α were assayed using the Mouse Interferon-alpha (PBL Biomedical laboratories, New Jersey, USA), the Mouse Interferon-gamma ELISA Ready-SET-Go (eBioscience, San Diego, Calif.), Mouse Fas Ligand Immunossay (Quantikine M kit; R&D systems, Minneapolis, Minn.), Mouse IL-18 ELISA (R&D Systems), Mouse TNF-α Immunoassay (R&D systems), respectively, following the manufacturer's instructions.
Serum levels of nitrite were measured using the Nitric Oxide quantification kit (Active Motif, Rixensart, Belgium), according to the manufacturer's instructions (data not shown).

MRL+/+→MRL+/+ chimeras = test: As2O3 treatment of control MRL+/+→MRL+/+ chimeras; type: in vivo, mouse; conditions: serum ELISA
Experimental: as §5, §6, §7

MRL+/+ mouse = test: Arsenic treatment of control MRL+/+ mice; type: in vivo
Experimental: as §2, §3, §4, §1

[3] = test system: NOD (non obese diabetic) mice; test: Arsenic treatment of diabetic NOD mice, glucose in urine; type: in vivo, mouse; conditions: 5-month-old female NOD mice treated for 2 months
Experimental: 5-Month-old female NOD (non obese diabetic) mice, which were developing the first symptoms of diabetes, were treated for 2 months with arsenic. The evolution of the pathology was evaluated by measuring the amount of glucose in the urine.

[4] = preventive, 5 μg/g, at T0+1 month
[5] = MRL/lpr mice treated with arsenic
[6] = MRL/lpr, treated with arsenic for two months, treatment then stopped for two months
[7] = end of the first month of treatment, 5 μg/g
[8] = MRL+/+ mice treated with arsenic

SMILES: O=[As]O[As]=O (centres unmarked) [As2O3]
- toxicity, preventive treatment (MRL/lpr mouse [1]; 15 μg/g of mouse): very toxic and the animals died after two months
- non-lymphoid organs such as the heart or the kidney (MRL/lpr mouse [1]; [4]): not modified by the treatment
- organ weight (lymphoproliferation, hepatomegaly) (MRL/lpr mouse [1]; [4]): normal weight
- lymphoproliferation (MRL/lpr mouse [1]; preventive, 1.5 months old mice, 5 μg/g, at T0+1 month): virtually complete absence of the lymphoproliferation
- curative effect (skin lesions, size of the nodes) (MRL/lpr mouse [2]; 2.5 μg/g of mouse): not sufficiently effective
- lupus-specific skin lesions (MRL/lpr mouse [2]; 5 μg of As2O3/g of mouse daily, after one week of treatment): spectacular signs of improvement
- skin lesions (MRL/lpr mouse [2]; 5 μg/g): complete disappearance of skin lesions
- skin lesions (MRL/lpr mouse [2]; 7.5 μg/g): complete disappearance of skin lesions
- skin lesions (MRL/lpr mouse [2]; 10 μg/g): complete disappearance of skin lesions
- toxicity, curative treatment (MRL/lpr mouse [2]; 15 μg/g of mouse): lethal in a few days
- immunocomplexes in the kidney (MRL/lpr mouse [2]; FIG. 7): absence of immunocomplexes in the kidney
- infiltration of the kidney by cells of the immune system (MRL/lpr mouse [2]; FIG. 7): do not shown any infiltration
- Organ weight, 2 lungs (MRL/lpr mouse [2]; [5]): 0.33 grams and 0.40 grams
- Organ weight, axillary nodes (MRL/lpr mouse [2]; [5]): 0.01 grams and 0.02 grams
- Organ weight, heart (MRL/lpr mouse [2]; [5]): 0.20 grams and 0.25 grams
- Organ weight, kidney (MRL/lpr mouse [2]; [5]): 0.52 grams and 0.53 grams
- Organ weight, liver (MRL/lpr mouse [2]; [5]): 2.58 grams and 2.89 grams
- Organ weight, mesenteric nodes (MRL/lpr mouse [2]; [5]): 0.05 grams
- Organ weight, spleen (MRL/lpr mouse [2]; [5]): 0.13 grams and 0.17 grams
- Organ weight, 2 lungs (MRL/lpr mouse [2]; [6]): 0.51 grams and 0.50 grams
- Organ weight, heart (MRL/lpr mouse [2]; [6]): 0.29 grams and 0.26 grams
- Organ weight, kidney (MRL/lpr mouse [2]; [6]): 0.55 grams
- Organ weight, liver (MRL/lpr mouse [2]; [6]): 3.21 grams and 3.12 grams
- Organ weight, mesenteric nodes (MRL/lpr mouse [2]; [6]): 1.97 grams and 1.03 grams
- size of the spleen and of a mesenteric node (MRL/lpr mouse [2]; after 1 month and 20 days of treatment, FIG. 4): spectacular decrease
- population of double-negative T lymphocytes TCRαβCD4-CD8-B220+ (MRL/lpr mouse [2]; after 1 month and 20 days of treatment, flow cytometry of spleen and node): virtually complete elimination
- survival (MRL/lpr mouse [2]; after 4 months, FIG. 9 legend): all the treated animals are alive
- survival and signs of pathology (MRL/lpr mouse [2]; after 35 weeks of treatment, FIG. 9): still alive with no signs of lymphoproliferation or of autoimmune pathologies
- pulmonary architecture, infiltration by lymphoid cells (MRL/lpr mouse [2]; anatomopathology, FIG. 3): normal pulmonary architecture
- amount of cytokines (alpha-IFN, gamma-IFN, IL-18, TNF-alpha, soluble FasL) (MRL/lpr mouse [2]; compared with normal MRL+/+ mice, FIG. 6): returns the amount of cytokines to a normal level
- exophthalmia (MRL/lpr mouse [2]; [7]): spectacular decrease
- lupus-related skin lesions (MRL/lpr mouse [2]; [7]): complete disappearance
- lowest effective dose (MRL/lpr mouse [2]; mouse): 5 µg/g
- glomerulonephritis (MRL/lpr mouse [2]; mouse, in vivo): significant reduction
- weight of lymph nodes, spleen and liver compared to MRL+/+ mouse (MRL/lpr mouse [2]; summary of table 1): returns the following organs to a normal weight
- double-negative T cells (MRL/lpr mouse [2]; treatment of three months): eliminate all the double-negative T cells
- pathologies after stopping treatment (MRL/lpr mouse [2]; treatment stopped for three months): reappearance of the lymphoproliferation and of the hepatomegaly
- treated mice alive (MRL/lpr mouse [2]; very sick MRL/lpr mice, at T0+14 weeks): 100%
- soluble and membrane-associated FasL levels (MRL/lpr→MRL+/+ chimeras; ELISA of sera and Western blotting of lymphoid cell lysates, FIG. 10A): sharply decreased
- serum IFN-α level (MRL/lpr→MRL+/+ chimeras; ELISA, FIG. 11A): maintained normal cytokine concentrations
- serum TNF-α level (MRL/lpr→MRL+/+ chimeras; ELISA, FIG. 11B): maintained normal cytokine concentrations
- Transaminase levels (GOT) (MRL/lpr→MRL+/+ chimeras; FIG. 10B): normalised
- level of other inflammatory cytokines and NO (MRL/lpr→MRL+/+ chimeras; data not shown): reduced
- survival (MRL/lpr→MRL+/+ chimeras; male and female chimeras with established GVH reaction, P<0.001, FIG. 12): significantly prolonged survival
- survival of chimeras (MRL/lpr→MRL+/+ chimeras; two weeks after the transplant): alive
- IFN-α synthesis (MRL+/+→MRL+/+ chimeras; FIG. 11A): not affected
- TNF-α synthesis (MRL+/+→MRL+/+ chimeras; FIG. 11B): not affected
- Organ weight, 2 lungs (MRL+/+ mouse; [8]): 0.32 grams and 0.30 grams
- Organ weight, axillary nodes (MRL+/+ mouse; [8]): 0.01 grams
- Organ weight, heart (MRL+/+ mouse; [8]): 0.22 grams
- Organ weight, kidney (MRL+/+ mouse; [8]): 0.44 grams
- Organ weight, liver (MRL+/+ mouse; [8]): 2.40 grams and 2.45 grams
- Organ weight, mesenteric nodes (MRL+/+ mouse; [8]): 0.05 grams and 0.03 grams
- Organ weight, spleen (MRL+/+ mouse; [8]): 0.10 grams and 0.15 grams
- treatment-related pathologies (MRL+/+ mouse; MRL+/+ mice, 5 μg/g, at T0+5 months): no sign of treatment-related pathologies
- glucose level in the urine [3]: normal glucose level in the urine
